ChEMBL document CHEMBL1201862, “PubChem BioAssay data set” (2004)
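Cells were grown in 96-well plates and exposed to each compound for 48 hours at five concentrations; endpoints were interpolated linearly between bracketing concentrations, or set to the highest concentration if not reached. At the GI50, growth is halved.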 Active and inactive are the calls of the source. Rule as the data show it: active = GI50 up to about 1.1 µM and inactive = higher.

Columns and labels:
Assay in all cases: NCI anticancer screen, dose series, 48 h
OVCAR-5 = tested on: OVCAR-5
M19-MEL = tested on: M19-MEL
HOP-62 = tested on: HOP-62
CAKI-1 = tested on: CAKI-1
OVCAR-3 = tested on: OVCAR-3
HOP-92 = tested on: HOP-92
K562 = tested on: K562
OVCAR-4 = tested on: OVCAR-4
RPMI-8226 = tested on: RPMI-8226
SN12C = tested on: SN12C
SF-295 = tested on: SF-295
HCT-15 = tested on: HCT-15
HT-29 = tested on: HT-29
KM-20L2 = tested on: KM-20L2
RXF 393 = tested on: RXF 393
IGROV-1 = tested on: IGROV-1
LOX IMVI = tested on: LOX IMVI
UACC-257 = tested on: UACC-257
UO-31 = tested on: UO-31
LXFL 529 = tested on: LXFL 529
SK-MEL-28 = tested on: SK-MEL-28
OVCAR-8 = tested on: OVCAR-8
KM12 = tested on: KM12
SF-268 = tested on: SF-268
SNB-78 = tested on: SNB-78
ACHN = tested on: ACHN
NCI-H522 = tested on: NCI-H522
RXF 631 = tested on: RXF 631
HCC 2998 = tested on: HCC 2998
DMS-114 = tested on: DMS-114
SNB-75 = tested on: SNB-75
A498 = tested on: A498
SF-539 = tested on: SF-539
TK-10 = tested on: TK-10
786-0 = tested on: 786-0
SK-MEL-2 = tested on: SK-MEL-2
DLD-1 = tested on: DLD-1
M14 = tested on: M14
Malme-3M = tested on: Malme-3M
SK-OV-3 = tested on: SK-OV-3
XF498 = tested on: XF498
HCT-116 = tested on: HCT-116
COLO 205 = tested on: COLO 205
EKVX = tested on: EKVX
SW-620 = tested on: SW-620
NCI-H23 = tested on: NCI-H23
SK-MEL-5 = tested on: SK-MEL-5
CCRF-CEM = tested on: CCRF-CEM
NCI-H460 = tested on: NCI-H460
MOLT-4 = tested on: MOLT-4
UACC-62 = tested on: UACC-62
HL-60 = tested on: HL-60
NCI-H226 = tested on: NCI-H226
DMS-273 = tested on: DMS-273
SNB-19 = tested on: SNB-19
A549 = tested on: A549
U-251 = tested on: U-251
MDA-N = tested on: MDA-N
MDA-MB-435 = tested on: MDA-MB-435
PC-3 = tested on: PC-3
SR = tested on: SR
HOP-18 = tested on: HOP-18
T47D = tested on: T47D
NCI/ADR-RES = tested on: NCI/ADR-RES
MCF7 = tested on: MCF7
MDA-MB-231 = tested on: MDA-MB-231
DU-145 = tested on: DU-145
Hs-578T = tested on: Hs-578T
BT-549 = tested on: BT-549

In the case of `c1ccc(CNc2ccc3[nH]c4cnccc4c3c2)cc1`, the GI50 (OVCAR-5) is reported as 16.8 µM (inactive), the GI50 (M19-MEL) is reported as 18.7 µM (inactive) and the GI50 (HOP-62) is reported as 17.2 µM (inactive). For the same compound, the GI50 (CAKI-1) was 16.2 µM (inactive), the GI50 (OVCAR-3) was 14 µM (inactive) and the GI50 (HOP-92) was 15.6 µM (inactive). The GI50 (K562) was 14.3 µM (inactive), the GI50 (OVCAR-4) was 14.4 µM (inactive) and the GI50 (RPMI-8226) was 16.4 µM (inactive). The GI50 (SN12C) was 16.9 µM (inactive), the GI50 (SF-295) was 18.5 µM (inactive) and the GI50 (HCT-15) was 19.4 µM. The GI50 (HT-29) was 17.7 µM (inactive), the GI50 (KM-20L2) was 16.2 µM (inactive) and the GI50 (RXF 393) was 13.6 µM (inactive). For the same compound, the GI50 (IGROV-1) was 16.8 µM (inactive), the GI50 (LOX IMVI) was 17.8 µM (inactive) and the GI50 (UACC-257) was 17.4 µM (inactive). The GI50 (UO-31) was 15.5 µM (inactive), the GI50 (LXFL 529) was 16.6 µM (inactive) and the GI50 (SK-MEL-28) was 13.6 µM (inactive). For the same compound, the GI50 (OVCAR-8) was 17.5 µM (inactive), the GI50 (KM12) was 17.3 µM (inactive) and the GI50 (SF-268) was 16.4 µM (inactive). The GI50 (SNB-78) was 20.9 µM (inactive), the GI50 (ACHN) was 15.1 µM (inactive) and the GI50 (NCI-H522) was 14 µM (inactive). For the same compound, the GI50 (RXF 631) was 20.6 µM (inactive), the GI50 (HCC 2998) was 18.1 µM (inactive) and the GI50 (DMS-114) was 14.8 µM (inactive). The GI50 (SNB-75) was 6.89 µM (inactive), the GI50 (A498) was 15 µM (inactive) and the GI50 (SF-539) was 18.1 µM (inactive). For the same compound, the GI50 (TK-10) was 20 µM (inactive), the GI50 (786-0) was 15.3 µM (inactive) and the GI50 (SK-MEL-2) was 17.7 µM (inactive). The GI50 (DLD-1) was 16.6 µM (inactive), the GI50 (M14) was 18 µM (inactive) and the GI50 (Malme-3M) was 16.9 µM (inactive). The GI50 (SK-OV-3) was 18.8 µM (inactive), the GI50 (XF498) was 19.4 µM (inactive) and the GI50 (HCT-116) was 17.5 µM (inactive). The GI50 (COLO 205) was 15.9 µM (inactive), the GI50 (EKVX) was 19 µM (inactive) and the GI50 (SW-620) was 19.9 µM (inactive). For the same compound, the GI50 (NCI-H23) was 15.1 µM (inactive), the GI50 (SK-MEL-5) was 15.2 µM (inactive) and the GI50 (CCRF-CEM) was 16.9 µM (inactive). For the same compound, the GI50 (NCI-H460) was 17.9 µM (inactive), the GI50 (MOLT-4) was 14 µM (inactive) and the GI50 (UACC-62) was 17.6 µM (inactive). For the same compound, the GI50 (HL-60) was 11 µM (inactive), the GI50 (NCI-H226) was 19.1 µM (inactive) and the GI50 (DMS-273) was 19.8 µM (inactive). The GI50 (SNB-19) was 16 µM (inactive), the GI50 (A549) was 17.9 µM (inactive) and the GI50 (U-251) was 15.9 µM (inactive).

For `CC(C)(C)c1nc2c(o1)/C(=N\c1ccc(F)cc1)c1ccccc1C2=O`, the GI50 (OVCAR-5) was 14.6 µM (inactive), the GI50 (M19-MEL) was 1.13 µM (inactive) and the GI50 (HOP-62) was 15.9 µM (inactive). The GI50 (CAKI-1) was 50.9 µM (inactive), the GI50 (OVCAR-3) was 1.06 µM (active) and the GI50 (HOP-92) was > 72.3 µM (inactive). For the same compound, the GI50 (K562) was 4.1 µM (inactive), the GI50 (OVCAR-4) was 28.8 µM (inactive) and the GI50 (RPMI-8226) was 26.9 µM (inactive). For the same compound, the GI50 (SN12C) was 5.69 µM (inactive), the GI50 (SF-295) was 6.1 µM (inactive) and the GI50 (HCT-15) was 5.19 µM. For the same compound, the GI50 (HT-29) was 17.6 µM (inactive), the GI50 (KM-20L2) was 17.1 µM (inactive) and the GI50 (RXF 393) was 9.79 µM (inactive). The GI50 (IGROV-1) was 14.9 µM (inactive), the GI50 (LOX IMVI) was 2.56 µM (inactive) and the GI50 (UACC-257) was 2.36 µM (inactive). For the same compound, the GI50 (UO-31) was 4.59 µM (inactive), the GI50 (LXFL 529) was 4.4 µM (inactive) and the GI50 (SK-MEL-28) was 10.9 µM (inactive). For the same compound, the GI50 (OVCAR-8) was 7.21 µM (inactive), the GI50 (MDA-N) was 2.37 µM (inactive) and the GI50 (KM12) was 7.78 µM (inactive). For the same compound, the GI50 (SF-268) was 10.6 µM (inactive), the GI50 (SNB-78) was 56 µM (inactive) and the GI50 (MDA-MB-435) was 2.05 µM (inactive). For the same compound, the GI50 (ACHN) was 4.85 µM (inactive), the GI50 (PC-3) was 5.41 µM (inactive) and the GI50 (NCI-H522) was 5.36 µM (inactive). For the same compound, the GI50 (SR) was > 43.5 µM (inactive), the GI50 (HCC 2998) was 9.12 µM (inactive) and the GI50 (DMS-114) was 0.902 µM (active). The GI50 (SNB-75) was 6.79 µM (inactive), the GI50 (A498) was 27.4 µM (inactive) and the GI50 (SF-539) was 4.6 µM (inactive). For the same compound, the GI50 (TK-10) was 35.7 µM (inactive), the GI50 (HOP-18) was 15.2 µM (inactive) and the GI50 (T47D) was > 49.3 µM (inactive). The GI50 (786-0) was 27.2 µM (inactive), the GI50 (NCI/ADR-RES) was 6.73 µM (inactive) and the GI50 (SK-MEL-2) was 2.67 µM (inactive). For the same compound, the GI50 (DLD-1) was 4.11 µM (inactive), the GI50 (M14) was 2.96 µM (inactive) and the GI50 (MCF7) was 4.13 µM (inactive). For the same compound, the GI50 (Malme-3M) was 1.97 µM (inactive), the GI50 (SK-OV-3) was 22.1 µM (inactive) and the GI50 (XF498) was 1.71 µM (inactive). For the same compound, the GI50 (MDA-MB-231) was 30.2 µM (inactive), the GI50 (HCT-116) was 5.12 µM (inactive) and the GI50 (COLO 205) was 15.7 µM (inactive). The GI50 (DU-145) was 10.4 µM (inactive), the GI50 (EKVX) was 23.7 µM (inactive) and the GI50 (SW-620) was 4.27 µM (inactive). For the same compound, the GI50 (NCI-H23) was 2.26 µM (inactive), the GI50 (SK-MEL-5) was 1.7 µM (inactive) and the GI50 (Hs-578T) was 6.68 µM (inactive). For the same compound, the GI50 (CCRF-CEM) was > 100 µM (inactive), the GI50 (NCI-H460) was 5.74 µM (inactive) and the GI50 (MOLT-4) was > 100 µM (inactive). The GI50 (BT-549) was 3.45 µM (inactive), the GI50 (UACC-62) was 2.55 µM (inactive) and the GI50 (HL-60) was > 28.6 µM (inactive). The GI50 (NCI-H226) was 16.9 µM (inactive), the GI50 (DMS-273) was 1.73 µM (inactive) and the GI50 (SNB-19) was 8.24 µM (inactive). For the same compound, the GI50 (A549) was 6.49 µM (inactive) and the GI50 (U-251) was 3.48 µM (inactive).
